Key:
stability / shelf-life = assay type: physicochemical
[1] = bioavailability (share of consumed substance entering the bloodstream); assay type: in vivo; conditions: mixed with an effective amount of a hydrogenated substance such as Erythritol
Description: For use as an additive 50 that accomplishes the various objectives and which provides the aspects of the present invention, the present inventor solved several problems with regard to use of Dihydromyricetin 14a. One such problem is that Dihydromyricetin 14a, on its own, has a solubility of approximately 0.2 mg per ml of fluid, which is very low. Because the solubility of Dihydromyricetin 14a is so low, it cannot be effectively utilized as a medicine or supplement, despite the well known benefits of this flavonoid 14 for people (as well as certain animals). Another issue with Dihydromyricetin 14a is that, on its own, it has a bioavailability of approximately four percent, meaning that only about four percent of consumed Dihydromyricetin 14a enters a person's bloodstream and stays long enough to be biologically effective for product user 56. […] Mixing an effective amount of one or more solvents 60, such as a bicarbonate substance 60a or an alcohol solvent 60b, increases the solubility of Dihydromyricetin 14a from approximately 0.2 mg per ml of fluid to approximately 114 mg per ml of fluid.

[2] = on its own; share of consumed Dihydromyricetin that enters a person's bloodstream; cited from earlier work

stability (stability / shelf-life; on its own, light sensitivity and other shelf-life limitations): poor stability | bioavailability of Dihydromyricetin [1]: greatly improves the bioavailability
Compound: O=C1c2c(O)cc(O)cc2O[C@H](c2cc(O)c(O)c(O)c2)[C@H]1O [Dihydromyricetin 14a, Dihydromyricetin]
shelf-life of Dihydromyricetin (stability / shelf-life; mixed with an effective amount of Erythritol and/or other hydrogenated substances): extends the Dihydromyricetin 14a shelf-life | bioavailability [2]: approximately four
